Earlier results, collected in US11974997B2, “RORgamma modulators and uses thereof” (Genfit, priority 2017, dated 2024).

Key:
[1] = administered by injection; cited from earlier work
[2] = administered by injection; cited from earlier work; remark: listed apart in the source

In the case of `Cc1ccc([C@@H](NC(=O)Cc2ccc3oc([C@@H](O)c4c(C)noc4C)cc3c2)c2ccccc2)c(C)c1` [TMP778], the “efficacy in psoriasis model” value [1] is given as “efficacious”.
For `CC(=O)Nc1nc(C)c(S(=O)(=O)Nc2ccc(C(O)(C(F)(F)F)C(F)(F)F)cc2)s1` [SR1001], the “efficacy in multiple sclerosis model” value [2] is listed as “efficacious”.
